Laboratory results reported in patent US11370880B1 (FLORIDA ATLANTIC UNIVERSITY BOARD OF TRUSTEES, priority 2018, dated 2022).

System: HUVEC cells
Method: Human umbilical vein endothelial cells (HUVECs) were grown in endothelial growth medium (EGM-2, Lonza) supplemented with 10% fetal bovine serum (Gibco) and 1% PSG (Penicillin-Streptomycin-Glutamine, Gibco). […] At the same time, the cellular toxicity of degradation product of PXDDA on HUVEC cells was also evaluated. For this purpose, 104 cells were first seeded and cultured on the 96-well plates for 3 days. The degradation products were diluted with culture medium to obtain different concentrations (12.5, 25, and 40% v/v), and they were then added into the cells. After 36 h, 20 μl of MTT solution was added and the plated was incubated at 37° C. for 4 h. After adding 200 μl of DMSO, the absorbance was recorded at 570 nm. The measurements were carried out in triplicate.

poly(xylitol-dodecanedioic acid) [PXDDA]
toxicity of degradation products to HUVEC cells (MTT): No tangible toxicity
